# Reference: patent US11206830B2, “Herbicidal composition comprising glufosinate or a salt thereof and pyroxasulfone” (BASF SE, priority 2008, dated 2021)
# Where “and” joins values, the source holds several entries; their conditions need not be identical. Identical values can stand only once.
# Columns and labels:
# Format in all cases: in vivo
# [1] = tested on: Lolium multiflorum (LOLMU); assay: greenhouse post-emergence herbicidal activity on LOLMU; settings: solo application
# Excerpt: (§1) For the post-emergence treatment, the test plants were first grown to a height of 3 to 20 cm, depending on the plant habit, and only then treated. Here, the herbicidal compositions were suspended or emulsified in water as distribution medium and sprayed using finely distributing nozzles.
# (§2) The respective herbicides B and/or safener were formulated as 10% by weight strength suspension concentrate and introduced to the spray liquor with the amount of solvent system used for applying the active compound. Herbicides A, C and/or safener were used as commercially available formulations and introduced to the spray liquor with the amount of solvent system used for applying the active compound. In the examples, the solvent used was water.
# (§3) The test period extended over 21 days. During this time, the plants were tended, and their response to the treatments with active compound was evaluated.
# (§4) The evaluation for the damage caused by the chemical compositions was carried out using a scale from 0 to 100%, compared to the untreated control plants. Here, 0 means no damage and 100 means complete destruction of the plants.
# (§5) The value E, which is to be expected if the activity of the individual compounds is just additive, was calculated using the method of S. R. Colby (1967) “Calculating synergistic and antagonistic responses of herbicide combinations”, Weeds 15, p. 22 ff. For two component mixtures the value E was calculated by the following formula E=X+Y−(X·Y/100)
# (§6) For three component mixtures the value E was calculated by the following formula E=X+Y+Z−(XY+XZ+YZ)/100+(X·YZ/10000) where X=effect in percent using herbicide A at an application rate a; • Y=effect in percent using herbicide B at an application rate b; • Z=effect in percent using herbicide C at an application rate c; • E=expected effect (in %) of A+B at application rates a+b. or • E=expected effect (in %) of A+B+C at application rates a+b+c.
# (§7) If the value observed in this manner is higher than the value E calculated according to Colby, a synergistic effect is present.
# (§8) Tables 1 to 12 relate to the herbicidal activity of the individual actives and of their combinations in post-emergence application assessed 20 DAT.
# [2] = tested on: Echinochloa crus-galli (ECHCG); assay: greenhouse post-emergence herbicidal activity on ECHCG; settings: Echinochloa crus-galli, 480 h, solo application, 12.5 g ai/ha, read-out: % activity 20 DAT
# Excerpt: as §1, §2, §3
# (§9) The evaluation for the damage caused by the chemical compositions was carried out using a scale from 0 to 100%, compared to the untreated control plants. […]
# (§10) The value E, which is to be expected if the activity of the individual compounds is just additive, was calculated using the method of S. R. Colby (1967) “Calculating synergistic and antagonistic responses of herbicide combinations”, Weeds 15, p. […] For two component mixtures the value E was calculated by the following formula E=X+Y−(X·Y/100)
# as §6, §7, §8
# [3] = tested on: Polygonum convolvulus (POLCO); assay: greenhouse post-emergence herbicidal activity on POLCO; settings: Fallopia convolvulus, 480 h, solo application, read-out: % activity 20 DAT
# Excerpt: as §1, §2, §3, §4, §5, §6, §7, §8
# [4] = tested on: Amaranthus retroflexus (AMARE); assay: greenhouse post-emergence herbicidal activity on AMARE; settings: 480 h, solo application, 12.5 g ai/ha, read-out: % activity 20 DAT
# Excerpt: as §1, §2, §3, §9, §10, §6, §7, §8
# [5] = tested on: Abutilon theophrasti (ABUTH); assay: greenhouse post-emergence herbicidal activity on ABUTH; settings: solo application
# Excerpt: as §1, §2, §3, §4, §5, §6, §7, §8
# [6] = tested on: Sinapis arvensis (SINAR); assay: greenhouse post-emergence herbicidal activity on SINAR; settings: Mutarda arvensis, 480 h, solo application, 12.5 g ai/ha, read-out: % activity 20 DAT
# Excerpt: as §1, §2, §3, §9, §10, §6, §7, §8
# [7] = tested on: Matricaria inermis (MATIN); assay: greenhouse post-emergence herbicidal activity on MATIN; settings: Matricaria, 480 h, solo application, read-out: % activity 20 DAT
# Excerpt: as §1, §2, §3, §4, §5, §6, §7, §8
# [8] = tested on: Digitaria sanguinalis (DIGSA); assay: greenhouse post-emergence herbicidal activity on DIGSA; settings: Digitaria sanguinalis, 480 h, solo application, read-out: % activity 20 DAT
# Excerpt: as §1, §2, §3, §4, §5, §6, §7, §8
# [9] = tested on: Chenopodium album (CHEAL); assay: greenhouse post-emergence herbicidal activity on CHEAL; settings: solo application
# Excerpt: as §1, §2, §3, §4, §5, §6, §7, §8
# [10] = tested on: Alopecurus myosuroides (ALOMY); assay: greenhouse post-emergence herbicidal activity on ALOMY; settings: solo application
# Excerpt: as §1, §2, §3, §4, §5, §6, §7, §8
# [11] = tested on: Galium aparine (GALAP); assay: greenhouse post-emergence herbicidal activity on GALAP; settings: solo application
# Excerpt: as §1, §2, §3, §4, §5, §6, §7, §8
# [12] = tested on: Avena fatua (AVEFA); assay: greenhouse post-emergence herbicidal activity on AVEFA; settings: 480 h, solo application, 25 g ai/ha, read-out: % activity 20 DAT
# Excerpt: as §1, §2, §3, §4, §5, §6, §7, §8
# [13] = tested on: Setaria viridis (SETVI); assay: greenhouse post-emergence herbicidal activity on SETVI; settings: 480 h, solo application, 12.5 g ai/ha, read-out: % activity 20 DAT
# Excerpt: as §1, §2, §3, §9, §10, §6, §7, §8
structure (smiles),measurement,setting,value
"Cn1nc(C(F)(F)F)c(CS(=O)(=O)C2=NOC(C)(C)C2)c1OC(F)F [pyroxasulfone, 3-[5-(difluoromethoxy)-1-methyl-3-(trifluoromethyl)pyrazol-4-ylmethylsulfonyl]-4,5-dihydro-5,5-dimethyl-1,2-oxazole]",inhibition at 12.5 g/ha,"[1]; Lolium multiflorum, 480 h, 12.5 g ai/ha, read-out: % activity 20 DAT",50%
same,inhibition at 25 g/ha,"[1]; Lolium multiflorum, 480 h, 25 g ai/ha, read-out: % activity 20 DAT",50%
same,% activity 20 DAT,[1]; 12.5 g ai/ha,55%
same,inhibition at 12.5 g/ha,[2],75%
same,inhibition at 12.5 g/ha,[3]; 12.5 g ai/ha,35%
same,inhibition at 25 g/ha,[3]; 25 g ai/ha,50%
same,inhibition at 50 g/ha,[3]; 50 g ai/ha,50%
same,inhibition at 100 g/ha,[3]; 100 g ai/ha,65%
same,inhibition at 12.5 g/ha,[4],75%
same,inhibition at 12.5 g/ha,"[5]; Abutilon theophrasti, 480 h, 12.5 g ai/ha, read-out: % activity 20 DAT",40%
same,inhibition at 50 g/ha,"[5]; Abutilon theophrasti, 480 h, 50 g ai/ha, read-out: % activity 20 DAT",70%
same,% activity 20 DAT,[5]; 12.5 g ai/ha,60%
same,% activity 20 DAT,[5]; 25 g ai/ha,65%
same,inhibition at 12.5 g/ha,[6],65%
same,inhibition at 12.5 g/ha,[7]; 12.5 g ai/ha,0%
same,inhibition at 25 g/ha,[7]; 25 g ai/ha,0%
same,inhibition at 100 g/ha,[7]; 100 g ai/ha,15%
same,inhibition at 12.5 g/ha,[8]; 12.5 g ai/ha,40%
same,inhibition at 25 g/ha,[8]; 25 g ai/ha,50%
same,inhibition at 12.5 g/ha,"[9]; Chenopodium album, 480 h, 12.5 g ai/ha, read-out: % activity 20 DAT",20%
same,inhibition at 50 g/ha,"[9]; Chenopodium album, 480 h, 50 g ai/ha, read-out: % activity 20 DAT",20%
same,% activity 20 DAT,[9]; 12.5 g ai/ha,35%
same,inhibition at 12.5 g/ha,"[10]; Alopecurus myosuroides, 480 h, 12.5 g ai/ha, read-out: % activity 20 DAT",30%
same,inhibition at 25 g/ha,"[10]; Alopecurus myosuroides, 480 h, 25 g ai/ha, read-out: % activity 20 DAT",50%
same,inhibition at 50 g/ha,"[10]; Alopecurus myosuroides, 480 h, 50 g ai/ha, read-out: % activity 20 DAT",50%
same,% activity 20 DAT,[10]; 12.5 g ai/ha,40%
same,% activity 20 DAT,[10]; 25 g ai/ha,70%
same,inhibition at 25 g/ha,"[11]; Galium aparine, 480 h, 25 g ai/ha, read-out: % activity 20 DAT",80%
same,% activity 20 DAT,[11]; 12.5 g ai/ha,70% and 40%
same,% activity 20 DAT,[11]; 25 g ai/ha,85%
same,inhibition at 25 g/ha,[12],75%
same,inhibition at 12.5 g/ha,[13],70%
